The values that follow come from ChEMBL document CHEMBL3817817, “The design strategy of selective PTP1B inhibitors over TCPTP” (Bioorg Med Chem, 2016).

For assay [1], the species on record is Homo sapiens. Kind of assay: Selectivity ratio of IC50 for human TCPTP to IC50 for human recombinant PTP1B.
Assay [2] concerns the target T1, Tyrosine-protein phosphatase non-receptor type 2 (Homo sapiens, UniProt P17706).
T1 sequence (P17706 whole entry): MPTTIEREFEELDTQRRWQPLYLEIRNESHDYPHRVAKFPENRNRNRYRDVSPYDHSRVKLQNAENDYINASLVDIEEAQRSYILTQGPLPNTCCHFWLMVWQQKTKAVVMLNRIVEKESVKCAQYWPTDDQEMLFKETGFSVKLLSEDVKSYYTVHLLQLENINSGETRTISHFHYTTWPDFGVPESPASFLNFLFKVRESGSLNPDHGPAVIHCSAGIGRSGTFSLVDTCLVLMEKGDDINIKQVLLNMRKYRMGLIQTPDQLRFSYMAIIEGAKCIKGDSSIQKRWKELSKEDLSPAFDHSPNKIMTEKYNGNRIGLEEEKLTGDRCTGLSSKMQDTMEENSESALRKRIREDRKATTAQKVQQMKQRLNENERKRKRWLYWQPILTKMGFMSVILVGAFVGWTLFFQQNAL
Put plainly: Inhibition of human TCPTP using p-nitrophenyl phosphate as substrate by micro plate reader method.

Assay [3] has as its target T2, Tyrosine-protein phosphatase non-receptor type 1 (Homo sapiens, UniProt P18031).
T2 sequence (P18031 whole entry): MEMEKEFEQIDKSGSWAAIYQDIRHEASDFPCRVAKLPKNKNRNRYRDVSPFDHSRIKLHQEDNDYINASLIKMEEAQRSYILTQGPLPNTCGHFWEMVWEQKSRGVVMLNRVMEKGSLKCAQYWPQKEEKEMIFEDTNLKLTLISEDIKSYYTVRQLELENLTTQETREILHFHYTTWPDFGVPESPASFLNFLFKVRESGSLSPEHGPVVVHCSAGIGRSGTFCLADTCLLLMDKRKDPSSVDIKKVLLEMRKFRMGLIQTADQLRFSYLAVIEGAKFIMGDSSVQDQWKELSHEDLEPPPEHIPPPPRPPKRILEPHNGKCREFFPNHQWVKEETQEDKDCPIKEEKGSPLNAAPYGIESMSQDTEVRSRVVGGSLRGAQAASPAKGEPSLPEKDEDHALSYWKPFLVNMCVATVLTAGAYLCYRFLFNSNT
Put plainly: Inhibition of human recombinant PTP1B catalytic domain using p-nitrophenyl phosphate as substrate by micro plate reader method.

Assay [4] concerns the target T2, Tyrosine-protein phosphatase non-receptor type 1. Put plainly: Inhibition of human recombinant PTP1B catalytic domain expressed in Escherichia coli BL21 (DE3) cells using p-Nitrophenyl phosphate as substrate by microplate reader method.
For assay [5], the target named is T1, Tyrosine-protein phosphatase non-receptor type 2. Kind of assay: Inhibition of human GST-tagged TCPTP expressed in Escherichia coli BL21 (DE3) cells using p-Nitrophenyl phosphate as substrate by microplate reader method.
The species entered for assay [6] is Homo sapiens. Kind of assay: Selectivity ratio of IC50 for human GST-tagged TCPTP to IC50 for human recombinant PTP1B catalytic domain.
The target of assay [7] is T1, Tyrosine-protein phosphatase non-receptor type 2. Kind of assay: Inhibition of TCPTP (unknown origin).
For assay [8], the target named is T2, Tyrosine-protein phosphatase non-receptor type 1. Kind of assay: Inhibition of human PTP1B (1 to 288 residues) expressed in Escherichia coli BL21 (DE3) cells using p-nitrophenyl phosphate as substrate monitered every 30 secs for 15 mins by micro plate reader method.
Assay [9] is filed under the species Homo sapiens. Put plainly: Selectivity ratio of IC50 for TCPTP (unknown origin) to IC50 for human PTP1B (1 to 288 residues).
For assay [10], the target named is T2, Tyrosine-protein phosphatase non-receptor type 1. Put plainly: Inhibition of PTP1B catalytic domain (1 to 321 residues) (unknown origin) expressed in Escherichia coli BL21 (DE3) cells using p-Nitrophenyl phosphate as substrate.
The species entered for assay [11] is Homo sapiens. Put plainly: Selectivity ratio of Ki for TCPTP (unknown origin) to Ki for PTP1B catalytic domain (1 to 321 residues) (unknown origin).
Assay [12] concerns the target T2, Tyrosine-protein phosphatase non-receptor type 1. Put plainly: Inhibition of PTP1B (unknown origin).
Assay [13] is filed under the species Homo sapiens. Kind of assay: Selectivity ratio of Ki for TCPTP (unknown origin) to Ki for human PTP1B (1 to 288 residues).
Assay [14] has as its target T2, Tyrosine-protein phosphatase non-receptor type 1. Kind of assay: Inhibition of human PTP1B (1 to 288 residues) expressed in Escherichia coli BL21 (DE3) cells using p-nitrophenyl phosphate as substrate by colorimetric method.
Assay [15] has as its target T1, Tyrosine-protein phosphatase non-receptor type 2. Put plainly: Inhibition of TCPTP (unknown origin) using p-nitrophenyl phosphate as substrate by colorimetric method.
The species named for assay [16] is Homo sapiens. Kind of assay: Selectivity ratio of IC50 for human recombinant TCPTP (1 to 341 residues) to IC50 for human recombinant PTP1B.
Assay [17] has as its target T2, Tyrosine-protein phosphatase non-receptor type 1. Put plainly: Inhibition of human recombinant PTP1B expressed in Escherichia coli using p-nitrophenyl phosphate as substrate by UV spectroscopy.
Assay [18] has as its target T1, Tyrosine-protein phosphatase non-receptor type 2. Put plainly: Inhibition of human recombinant TCPTP (1 to 341 residues) expressed in Escherichia coli using p-nitrophenyl phosphate as substrate by UV spectroscopy.
Assay [19] has the same target. Kind of assay: Inhibition of recombinant TCPTP (unknown origin) at pH 7.
For assay [20] the target is unchanged. Put plainly: Inhibition of human TCPTP (1 to 296 residues) catalytic domain expressed in Escherichia coli BL21 cells using fluorescein diphosphate as substrate by microplate reader method.

For the molecule `CO[C@H]1O[C@H](COCc2ccccc2)[C@@H](OCc2ccccc2)[C@H](OCc2cn(CCCOc3ccc(O)c(C(=O)O)c3)nn2)[C@H]1OCc1cn(CCCOc2ccc(O)c(C(=O)O)c2)nn1`, the Ratio IC50 in the assay listed under Homo sapiens [1] was determined as 7.05. The IC50 in assay [2] was found to be 54.3 µM; in [3] it was 7.7 µM.

For the molecule `COC(=O)[C@H](Cc1ccc(O)cc1)n1cc(CO[C@H]2[C@@H](OCc3ccccc3)[C@@H](OC)O[C@H](COCc3ccccc3)[C@H]2OCc2cn([C@@H](Cc3ccc(O)cc3)C(=O)OC)nn2)nn1`, the IC50 stood at 9.6 µM in assay [4] and 59.6 µM in assay [5]. Further, the Ratio IC50 in the assay filed under Homo sapiens [6] amounted to 6.2.

Turning to `COC(=O)c1c(O)cccc1OC/C=C/c1ccc(F)c(-c2cc(C(=O)O)no2)c1`, the IC50 in assay [7] came to 164 µM; in assay [8] it was 6.9 µM. Besides, the Ratio IC50 in the assay filed under Homo sapiens [9] came to 23.8.

With `CO[C@H]1O[C@H](Cn2cc(NC(=O)c3cccc(C(=O)Nc4cn(C[C@H]5O[C@H](OC)[C@H](OCc6ccccc6)[C@H](OCc6ccccc6)[C@@H]5OCc5ccccc5)nn4)c3)nn2)[C@@H](OCc2ccccc2)[C@@H](OCc2ccccc2)[C@H]1OCc1ccccc1`, in the assay listed under Homo sapiens [1], the Ratio IC50 came to 10.3. The results for the half-inhibitory concentration (IC50) in assay [2] and in assay [3] were 15.5 µM and 1.5 µM, respectively.

As to `NC(=O)[C@H](Cc1ccc(C(F)(F)P(=O)(O)O)cc1)NC(=O)[C@H](Cc1ccc(O)cc1)NC(=O)Cc1ccc(C(F)(F)P(=O)(O)O)cc1`, the inhibition constant (Ki) in assay [7] was 0.02 µM; in [10], 0.0049 µM. Further, the Ratio Ki in the assay listed under Homo sapiens [11] was 4.08.

With `COC(=O)c1c(O)cccc1OC/C=C/c1cccc(-c2onc(C(=O)O)c2CO)c1`, the IC50 in assay [7] was found to be 19.2 µM; in assay [12], 0.92 µM.

As to `CCCCCNC(=O)[C@H](Cc1ccc(C(=O)C(=O)Nc2ccccc2C(=O)O)c(/C=C/C(N)=O)c1)NS(C)(=O)=O`, the Ratio Ki in the assay filed under Homo sapiens [13] was determined as 0.94. For the same molecule, the figures for the Ki in [14] and in assay [15] were 0.17 µM and 0.16 µM, respectively.

For the molecule `O=C(O)C(=O)c1ccc(OCc2ccc(COc3ccc(C(=O)C(=O)O)cc3)c(C(=O)Nc3ccc(Oc4ccccc4)cc3)c2)cc1`, in the assay filed under Homo sapiens [16], the Ratio IC50 came out at 1.6. The IC50 in [17] amounted to 1.5 µM; in [18] it was 2.4 µM.

Take `O=C(O)C(=O)Nc1sc2c(c1C(=O)O)CCN(CCc1ccccc1)C2`: the Ki in assay [19] was 7.2 µM.

In turn, `CC(=O)N[C@H](Cc1ccc(N(C(=O)C(=O)O)c2ccccc2C(=O)O)c2ccccc12)C(=O)NCCCCCOc1cc2ccccc2cc1C(=O)O` gave an IC50 in assay [7] of 0.049 µM.

`COC(=O)c1ccc(C(C/C=C/c2ccccc2)(Cc2ccc(C(F)(F)P(=O)(O)O)cc2)n2nnc3ccccc32)cc1` (stereo unspecified): the IC50 in assay [20] was 0.087 µM.
